In patent publication EP3041353B1, “COMPOSITIONS COMPRISING BACTERIOSTATIC AGENTS AND BRILLIANT BLUE G” (priority 2013, dated 2015):

How the values were obtained:
P2X7-Rezeptor = target: T1, P2X7-Rezeptor (Rattus norvegicus, UniProt Q64663); details: Jiang et al. 2000; cited from earlier work
T1 sequence (Q64663 1-595): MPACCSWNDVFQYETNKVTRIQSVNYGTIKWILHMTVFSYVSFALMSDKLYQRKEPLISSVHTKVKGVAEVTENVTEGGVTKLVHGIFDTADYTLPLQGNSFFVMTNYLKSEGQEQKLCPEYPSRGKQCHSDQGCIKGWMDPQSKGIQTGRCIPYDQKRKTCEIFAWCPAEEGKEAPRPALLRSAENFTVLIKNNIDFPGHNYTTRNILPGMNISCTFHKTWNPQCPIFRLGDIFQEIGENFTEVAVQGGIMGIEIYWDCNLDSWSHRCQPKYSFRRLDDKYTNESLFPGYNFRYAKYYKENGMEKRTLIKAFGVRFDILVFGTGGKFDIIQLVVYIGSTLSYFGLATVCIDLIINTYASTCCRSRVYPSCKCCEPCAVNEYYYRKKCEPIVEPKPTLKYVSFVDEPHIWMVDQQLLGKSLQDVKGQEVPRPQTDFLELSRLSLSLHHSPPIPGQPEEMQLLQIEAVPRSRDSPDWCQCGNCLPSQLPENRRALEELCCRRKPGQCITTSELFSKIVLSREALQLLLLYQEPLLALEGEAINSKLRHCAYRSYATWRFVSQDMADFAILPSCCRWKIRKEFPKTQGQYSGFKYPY

Bacillus megaterium = test: Bacteriostatic effect of Octenidin with BBG: turbidity after 24 h incubation; assay type: cell-based; design: key: +: Bakterienwachstum nach 24 h Inkubation; -: kein Bakterienwachstum nach 24 h Inkubation
Experimental: (§1) Zur Untersuchung des Einflusses von BBG auf die bakteriostatische Wirkung wurden Bakterien 24 h mit erfindungsgemäßen Zusammensetzungen, Benzalkoniumchlorid (BAK) und Octenidin (Oct) als Bakteriostatikum enthielten, inkubiert. Wenn sich die Inkubationsmischung trübte, wurde das als Bakterienwachstum interpretiert. Zum Vergleich wurde Brillantblau R (BBR) anstelle von BBG eingesetzt. Die Ergebnisse sind in den Tabellen 1-4 wiedergegeben. Tabelle 1: Einfluss von BBG und BBR auf die bakteriostatische Wirkung von BAK gegenüber Escherichia coli (E. coli), + = Bakterienwachstum nach 24 h Inkubation, - = kein Bakterienwachstum nach 24 h Inkubation, R = Brillantblau R (BBR), G = Brillantblau G (BBG).
(§2) Tabelle 4: Einfluss von BBG auf die bakteriostatische Wirkung von Octenidin (Oct) gegenüber Gram-positiven Bakterien., + = Bakterienwachstum nach 24 h Inkubation, - = kein Bakterienwachstum nach 24 h Inkubation, +/- = geringes Wachstum nach 24 h Inkubation, BBG = Brillantblau G.

Bacillus subtilis = test: as above; assay type: cell-based; design: key: +: Bakterienwachstum nach 24 h Inkubation; -: kein Bakterienwachstum nach 24 h Inkubation
Experimental: as §1, §2

[1] = tested on: Clavibacter michiganensis; test: as above; assay type: cell-based; design: key: +: Bakterienwachstum nach 24 h Inkubation; -: kein Bakterienwachstum nach 24 h Inkubation
Experimental: as §1, §2

Paenibacillus sp. = test: as above; assay type: cell-based; design: key: +: Bakterienwachstum nach 24 h Inkubation; -: kein Bakterienwachstum nach 24 h Inkubation
Experimental: as §1, §2

In the case of `CCOc1ccc(Nc2ccc(C(=C3C=CC(=[N+](CC)Cc4cccc(S(=O)(=O)[O-])c4)C=C3C)c3ccc(N(CC)Cc4cccc(S(=O)(=O)O)c4)cc3C)cc2)cc1` [BBG, Brillantblau G], the “Hemmung des P2X7-Rezeptors” value (P2X7-Rezeptor) is listed as “spezifisch nicht-kompetitiv hemmt”, the “Bakterienwachstum nach 24 h Inkubation” value (Bacillus megaterium; 0,007% BBG + Octenidin 0,01%) is listed as “-” and the “Bakterienwachstum nach 24 h Inkubation” value (Bacillus megaterium; 0,007% BBG + Octenidin 0,002%) is listed as “-”. For the same molecule, the “Bakterienwachstum nach 24 h Inkubation” value (Bacillus megaterium; 0,007% BBG + Octenidin 0,003%) was “-”, the “Bakterienwachstum nach 24 h Inkubation” value (Bacillus megaterium; 0,007% BBG + Octenidin 0,005%) was “-” and the “Bakterienwachstum nach 24 h Inkubation” value (Bacillus megaterium; 0,007% BBG + Octenidin 0,007%) was “-”. For the same molecule, the “Bakterienwachstum nach 24 h Inkubation” value (Bacillus megaterium; 0,007% BBG + Octenidin 0,009%) was “-”, the “Bakterienwachstum nach 24 h Inkubation” value (Bacillus megaterium; 0,007% BBG, Octenidin 0%) was “+” and the “Bakterienwachstum nach 24 h Inkubation” value (Bacillus megaterium; 0,015% BBG + Octenidin 0,01%) was “-”. The “Bakterienwachstum nach 24 h Inkubation” value (Bacillus megaterium; 0,015% BBG + Octenidin 0,002%) was “+”, the “Bakterienwachstum nach 24 h Inkubation” value (Bacillus megaterium; 0,015% BBG + Octenidin 0,005%) was “-” and the “Bakterienwachstum nach 24 h Inkubation” value (Bacillus megaterium; 0,015% BBG + Octenidin 0,007%) was “-”. The “Bakterienwachstum nach 24 h Inkubation” value (Bacillus megaterium; 0,015% BBG + Octenidin 0,009%) was “-”, the “Bakterienwachstum nach 24 h Inkubation” value (Bacillus megaterium; 0,015% BBG, Octenidin 0%) was “+” and the “Bakterienwachstum nach 24 h Inkubation” value (Bacillus megaterium; 0,030% BBG + Octenidin 0,01%) was “-”. The “Bakterienwachstum nach 24 h Inkubation” value (Bacillus megaterium; 0,030% BBG + Octenidin 0,002%) was “+”, the “Bakterienwachstum nach 24 h Inkubation” value (Bacillus megaterium; 0,030% BBG + Octenidin 0,003%) was “+” and the “Bakterienwachstum nach 24 h Inkubation” value (Bacillus megaterium; 0,030% BBG + Octenidin 0,009%) was “-”. For the same molecule, the “Bakterienwachstum nach 24 h Inkubation” value (Bacillus megaterium; 0,030% BBG, Octenidin 0%) was “+”, the “Bakterienwachstum nach 24 h Inkubation” value (Bacillus subtilis; 0,007% BBG + Octenidin 0,01%) was “-” and the “Bakterienwachstum nach 24 h Inkubation” value (Bacillus subtilis; 0,007% BBG + Octenidin 0,002%) was “+”. The “Bakterienwachstum nach 24 h Inkubation” value (Bacillus subtilis; 0,007% BBG + Octenidin 0,003%) was “-”, the “Bakterienwachstum nach 24 h Inkubation” value (Bacillus subtilis; 0,007% BBG + Octenidin 0,005%) was “-” and the “Bakterienwachstum nach 24 h Inkubation” value (Bacillus subtilis; 0,007% BBG + Octenidin 0,007%) was “-”. For the same molecule, the “Bakterienwachstum nach 24 h Inkubation” value (Bacillus subtilis; 0,007% BBG + Octenidin 0,009%) was “-”, the “Bakterienwachstum nach 24 h Inkubation” value (Bacillus subtilis; 0,007% BBG, Octenidin 0%) was “+” and the “Bakterienwachstum nach 24 h Inkubation” value (Bacillus subtilis; 0,015% BBG + Octenidin 0,01%) was “-”. For the same molecule, the “Bakterienwachstum nach 24 h Inkubation” value (Bacillus subtilis; 0,015% BBG + Octenidin 0,002%) was “+”, the “Bakterienwachstum nach 24 h Inkubation” value (Bacillus subtilis; 0,015% BBG + Octenidin 0,003%) was “+” and the “Bakterienwachstum nach 24 h Inkubation” value (Bacillus subtilis; 0,015% BBG + Octenidin 0,005%) was “-”. For the same molecule, the “Bakterienwachstum nach 24 h Inkubation” value (Bacillus subtilis; 0,015% BBG + Octenidin 0,007%) was “-”, the “Bakterienwachstum nach 24 h Inkubation” value (Bacillus subtilis; 0,015% BBG + Octenidin 0,009%) was “-” and the “Bakterienwachstum nach 24 h Inkubation” value (Bacillus subtilis; 0,015% BBG, Octenidin 0%) was “+”. For the same molecule, the “Bakterienwachstum nach 24 h Inkubation” value (Bacillus subtilis; 0,030% BBG + Octenidin 0,01%) was “-”, the “Bakterienwachstum nach 24 h Inkubation” value (Bacillus subtilis; 0,030% BBG + Octenidin 0,002%) was “+” and the “Bakterienwachstum nach 24 h Inkubation” value (Bacillus subtilis; 0,030% BBG + Octenidin 0,003%) was “+”. For the same molecule, the “Bakterienwachstum nach 24 h Inkubation” value (Bacillus subtilis; 0,030% BBG + Octenidin 0,005%) was “+”, the “Bakterienwachstum nach 24 h Inkubation” value (Bacillus subtilis; 0,030% BBG + Octenidin 0,007%) was “+” and the “Bakterienwachstum nach 24 h Inkubation” value (Bacillus subtilis; 0,030% BBG + Octenidin 0,009%) was “-”. For the same molecule, the “Bakterienwachstum nach 24 h Inkubation” value (Bacillus subtilis; 0,030% BBG, Octenidin 0%) was “+”, the “Bakterienwachstum nach 24 h Inkubation” value ([1]; 0,007% BBG + Octenidin 0,01%) was “-” and the “Bakterienwachstum nach 24 h Inkubation” value ([1]; 0,007% BBG + Octenidin 0,002%) was “+”. The “Bakterienwachstum nach 24 h Inkubation” value ([1]; 0,007% BBG + Octenidin 0,003%) was “-”, the “Bakterienwachstum nach 24 h Inkubation” value ([1]; 0,007% BBG + Octenidin 0,005%) was “-” and the “Bakterienwachstum nach 24 h Inkubation” value ([1]; 0,007% BBG + Octenidin 0,007%) was “-”. The “Bakterienwachstum nach 24 h Inkubation” value ([1]; 0,007% BBG + Octenidin 0,009%) was “-”, the “Bakterienwachstum nach 24 h Inkubation” value ([1]; 0,007% BBG, Octenidin 0%) was “+” and the “Bakterienwachstum nach 24 h Inkubation” value ([1]; 0,015% BBG + Octenidin 0,01%) was “-”. The “Bakterienwachstum nach 24 h Inkubation” value ([1]; 0,015% BBG + Octenidin 0,002%) was “+”, the “Bakterienwachstum nach 24 h Inkubation” value ([1]; 0,015% BBG + Octenidin 0,003%) was “+” and the “Bakterienwachstum nach 24 h Inkubation” value ([1]; 0,015% BBG + Octenidin 0,005%) was “-”. The “Bakterienwachstum nach 24 h Inkubation” value ([1]; 0,015% BBG + Octenidin 0,007%) was “-”, the “Bakterienwachstum nach 24 h Inkubation” value ([1]; 0,015% BBG + Octenidin 0,009%) was “-” and the “Bakterienwachstum nach 24 h Inkubation” value ([1]; 0,015% BBG, Octenidin 0%) was “+”. For the same molecule, the “Bakterienwachstum nach 24 h Inkubation” value ([1]; 0,030% BBG + Octenidin 0,01%) was “-”, the “Bakterienwachstum nach 24 h Inkubation” value ([1]; 0,030% BBG + Octenidin 0,002%) was “+” and the “Bakterienwachstum nach 24 h Inkubation” value ([1]; 0,030% BBG + Octenidin 0,003%) was “+”. For the same molecule, the “Bakterienwachstum nach 24 h Inkubation” value ([1]; 0,030% BBG + Octenidin 0,005%) was “+”, the “Bakterienwachstum nach 24 h Inkubation” value ([1]; 0,030% BBG + Octenidin 0,007%) was “+” and the “Bakterienwachstum nach 24 h Inkubation” value ([1]; 0,030% BBG + Octenidin 0,009%) was “-”. The “Bakterienwachstum nach 24 h Inkubation” value ([1]; 0,030% BBG, Octenidin 0%) was “+”, the “Bakterienwachstum nach 24 h Inkubation” value (Paenibacillus sp.; 0,007% BBG + Octenidin 0,01%) was “-” and the “Bakterienwachstum nach 24 h Inkubation” value (Paenibacillus sp.; 0,007% BBG + Octenidin 0,002%) was “-”. The “Bakterienwachstum nach 24 h Inkubation” value (Paenibacillus sp.; 0,007% BBG + Octenidin 0,003%) was “-”, the “Bakterienwachstum nach 24 h Inkubation” value (Paenibacillus sp.; 0,007% BBG + Octenidin 0,005%) was “-” and the “Bakterienwachstum nach 24 h Inkubation” value (Paenibacillus sp.; 0,007% BBG + Octenidin 0,007%) was “-”. For the same molecule, the “Bakterienwachstum nach 24 h Inkubation” value (Paenibacillus sp.; 0,007% BBG + Octenidin 0,009%) was “-”, the “Bakterienwachstum nach 24 h Inkubation” value (Paenibacillus sp.; 0,007% BBG, Octenidin 0%) was “+” and the “Bakterienwachstum nach 24 h Inkubation” value (Paenibacillus sp.; 0,015% BBG + Octenidin 0,01%) was “-”. The “Bakterienwachstum nach 24 h Inkubation” value (Paenibacillus sp.; 0,015% BBG + Octenidin 0,002%) was “+”, the “Bakterienwachstum nach 24 h Inkubation” value (Paenibacillus sp.; 0,015% BBG + Octenidin 0,003%) was “+” and the “Bakterienwachstum nach 24 h Inkubation” value (Paenibacillus sp.; 0,015% BBG + Octenidin 0,005%) was “-”. The “Bakterienwachstum nach 24 h Inkubation” value (Paenibacillus sp.; 0,015% BBG + Octenidin 0,007%) was “-”, the “Bakterienwachstum nach 24 h Inkubation” value (Paenibacillus sp.; 0,015% BBG + Octenidin 0,009%) was “-” and the “Bakterienwachstum nach 24 h Inkubation” value (Paenibacillus sp.; 0,015% BBG, Octenidin 0%) was “+”. The “Bakterienwachstum nach 24 h Inkubation” value (Paenibacillus sp.; 0,030% BBG + Octenidin 0,01%) was “-”, the “Bakterienwachstum nach 24 h Inkubation” value (Paenibacillus sp.; 0,030% BBG + Octenidin 0,002%) was “+” and the “Bakterienwachstum nach 24 h Inkubation” value (Paenibacillus sp.; 0,030% BBG + Octenidin 0,003%) was “+”. For the same molecule, the “Bakterienwachstum nach 24 h Inkubation” value (Paenibacillus sp.; 0,030% BBG + Octenidin 0,005%) was “+”, the “Bakterienwachstum nach 24 h Inkubation” value (Paenibacillus sp.; 0,030% BBG + Octenidin 0,007%) was “+” and the “Bakterienwachstum nach 24 h Inkubation” value (Paenibacillus sp.; 0,030% BBG + Octenidin 0,009%) was “+”. The “Bakterienwachstum nach 24 h Inkubation” value (Paenibacillus sp.; 0,030% BBG, Octenidin 0%) was “+”.
